Values joined by “and” are separate entries in the source; they are usually repeats but may differ in a detail not shown here. Identical values can stand only once. Like-named read-outs stand apart in the source and are kept apart here.
How the values were obtained:
[1] = Plasma protein binding (PPB) by equilibrium dialysis; assay type: in vitro ADME, Sprague Dawley rat; details: Sprague Dawley, rat, plasma (Li-Heparin), equilibrium dialysis of PBS against dye-plasma stock, 37°C, UV absorption
Description: (§1) The interaction between fluorescent dyes and plasma proteins is particularly important as it affects the capability of the dyes as GRF agents in the following aspects: bio-distribution and clearance pathways as well as the rate of excretion in vivo.[15] […] ABCACY and AACACY display 54.5% and 60% PPB, respectively. […] Additionally, PPB is not only dependent on the dye hydrophilicity, but is also related to the molecular charge number and distribution. Since albumin is alkalotic, acidic agents will preferentially bind to albumin, then to lipoprotein after albumin becomes saturated. Basic agents will bind to the acidic alpha-1 acid glycoprotein.[17] Thus, anionic and cationic compounds are more inclined to bind to proteins than zwitterionic compounds. Therefore, we will mainly focus on zwitterionic compounds in the following parts.
5. […]
(§2) PPB measurements were performed by equilibrium dialysis of PBS against dye-protein stock solution (or control stock solution) using a two-chamber dialysis set-up. After 24 hours the absorption of each of the dyes or agents in PBS and plasma were determined in three independent measurements by both absorption spectroscopy and fluorescence spectroscopy in a microplate reader. The concentrations of each of the dyes or agents were calculated on the basis of the corresponding molar absorption coefficients. […] PPB in percent [%] was determined by averaging three independent measurements and following the equation of Lambert Beer law: […]
(§3) ABZWCY-HPβCD (1 mg/mL in PBS), SD rat plasma (50% in PBS), ABZWCY-HPβCD (1 mg/mL) mixed with SD rat plasma (50% in PBS) were prepared and filtered through a sterile 0.22 μm filter before analysis. […] The measurements were carried out in quadratic cells and analyzed the scattered light at an angle of 90° at a controlled temperature (25 °C). […] The apparent hydrodynamic radius was calculated according to the Stokes-Einstein […]

[2] = system: Sprague Dawley rat plasma; experiment: as above; assay type: in vitro ADME; details: equilibrium dialysis of PBS against dye-plasma stock, 37°C, 24 hours, UV absorption
Description: as §1
5. […]
as §2, §3

[3] = Transcutaneous measurement of elimination kinetics in healthy rats; assay type: in vivo, Sprague Dawley rats; details: for Transcutaneous elimination (clearance) curve, in words: i.v. injection
Experimental: (§4) The principles and methods of the transcutaneous technique are described in Fig. S10. ^† Firstly, as a control, IRDye800CW was chosen to be injected intravenously into rats and its elimination curves were measured transcutaneously. […] A long retention time of IRDye800CW in vivo was attributed to its higher PPB (41%) and negative charge feature, leading to skin accumulation and slow renal excretion. […] To assess whether the anionic agent ABANCY-HPβCD is reabsorbed or secreted by organic anion transporter (OAT) proteins in the kidney tubules, probenecid, an inhibitor of OAT proteins,[18] was administered (30 min prior to injection of ABANCY-HPβCD) to block tubular reabsorption and the secretion pathway, then, elimination curves were measured for the same rats. […] We also measured the cationic HPβCD based agent in the same manner and the results are similar to those of anionic HPβCD based agents. Next, the free dye ABZWCY was injected intravenously and its elimination curves were also recorded transcutaneously. […] This is in agreement with their similar PPB values (∼20%). To determine whether ABZWCY has tubular reabsorption or secretion in addition to filtration, probenecid was administered to block tubular reabsorption and the secretion pathway. […]
(§5) 8. Principle and methods for transcutaneous measurements of kidney function The transcutaneous assessment of renal function is based on the measurement of the fluorescence signal of a marker through the skin. A miniaturized transcutaneous device is comprised of two light emitting diodes (LEDs) and one photodiode (Figure S10a and 10b). The LEDs can blink every few seconds to excite a fluorescent marker using excitation wavelength of 700 nm. The fluorescent signal will be recorded by detecting the emission intensity of a fluorescent marker at 790 nm. Data are stored in the device and can be read out after measurement.[6] The clearance half-life of fluorescent agents was calculated by software, which was developed by the Institute of Medical Technology of the University of Heidelberg.[7] For this a 3-exponential function was fitted to the measured elimination curve, the peak of the curve was supposed to be 100%. Also a 1-exponential function was applied from 50% to 15% of the peak […]
(§6) Figure. S10. (a) Transcutaneous device and battery used for the transcutaneous measurement, the photodiodes and LEDs in the device. (b) A schematic overview of the excitation and emission light between a transcutaneous device and fluorescent agents in capillary vessel after injection. (c-g) The fixation procedures of a transcutaneous device on the skin and measurements in a […]
(§7) Healthy Sprague Dawley rats (Body weight: 250-300 g, 8-10 weeks) were anesthetized for a short period with Isoflurane (Forene®, AbbVie, Illinois, USA; Dosage: 5 %; Flow(O2): 5 L/min) in order to fix the transcutaneous device on the back of rats. The back of the animals was depilated with an electric shaver (Figure 10c-g). After a baseline measurement for around 5 min, a fluorescent agent in saline (DeltaSelect, GmbH, Rimbach, Germany) was injected as a bolus by tail vein injection. […] The devices were removed and the data were read out after 120 min of transcutaneous measurement. The clearance half-life of fluorescent agents was calculated by software. […]

[4] = system: organic anion transporter (OAT) proteins; experiment: as above; assay type: in vivo, Sprague Dawley rats; details: Sprague Dawley, rat, skin (transcutaneous fluorescence signal), ip; healthy rats, 50 mg/kg probenecid i.p. 30 min prior to injection, transcutaneous; read-out: T 1/2 with probenecid (clearance half-life)
Experimental: as §4, §5, §6, §7

[5] = Urinary recovery of injected dose (metabolic cages); assay type: in vivo, Sprague Dawley rats
Experimental: With this in mind, we investigated the recoveries of injected doses using in vivo experiments with metabolic cages. High urinary recoveries were determined for the free dye ABZWCY and its mixture with HPβCD (99.4 ± 4.8% and 96.5 ± 5.8%, respectively, Fig. 4 and Tables 2 and S6 ^†). Similar tendencies of urinary recoveries of ABZWCY-HPβCD and AAZWCY-HPβCD with values of 97 ± 3.9% and 103.3 ± 4.2%, respectively, were also observed (Fig. 4, and Tables 2 and S7 ^†). Indeed, urinary recoveries of the given dose were almost completed at 9 h post-injection for ABZWCY-HPβCD and AAZWCY-HPβCD, which is faster than the free dye ABZWCY and in agreement with their shorter clearance half-life.
All experiments were conducted in accordance with the German Animal Protection Law and approved by the local authority (Regierungspräsidium Nordbaden, Karlsruhe Germany in agreement with EU guideline 2010/63/EU). […]
10. Urinary recovery of injected dose in urine studies
Recovery of the injected dose in urine studies were conducted in conscious, healthy Sprague Dawley rats (Body weight: 250-300 g). The corresponding test agents with corresponding dosage (ABZWCY: 2.5 mg/kg, ABZWCY mixed with HPβCD: 2.5 mg/kg mixed with 22.5 mg/kg (HPβCD), ABZWCY-HPβCD and AAZWCY-HPβCD: 50 mg/kg) were administered by tail vein injection. Urine was collected using metabolic cages in intervals of 1, 2, 3, 6, 9, 24 h after intravenous injection of agents into rats. The samples were stored at -20°C until they were analyzed. The urine samples were centrifuged for 8 min at 13000 ×g and then filtered by 0.22 μm syringe filter. A series of working solution of each agent with concentrations between 0.02 mg/mL and 2 mg/mL were prepared. Appropriate volumes of the working solutions were added to blank urine and fluorescent intensity of those mixtures were measured in order to obtain an external calibration curve. Quantification of each of the agents in urine at each time point was performed via HPLC analysis and fluorescence intensity detection. The concentration in urine at each time point was calculated based on the external calibration standards curve between fluorescence intensity and the concentration of each of the agents.
Considering biological components within urine may interfere with the fluorescent intensity of agents, the fluorescent intensity of agent were tested to study whether there is difference in urine and PBS, the emission intensity and calibration curve are compared (Figure S11). The results […]
This slightly difference can explained the urinary recoveries have some trial a little over 100% (Table S6 and S7), which can be found in other literatures studies. […]

plasma protein = details: cited from earlier work

## CC1(C)C(/C=C/C2=C(Nc3ccc(CCN=[N+]=[N-])cc3)C(=C/C=C3/N(CCC[N+](C)(C)C)c4ccc(S(=O)(=O)O)cc4C3(C)C)/CCC2)=[N+](CCC[N+](C)(C)C)c2ccc(S(=O)(=O)O)cc21 [AAZWCY]
[1]
  fraction unbound at 24 h, 0.2 mg/mL: 0.843

## CC1(C)C(/C=C/C2=C(Nc3ccc(CCC(=O)O)cc3)C(=C/C=C3/N(CCC[N+](C)(C)C)c4ccc(S(=O)(=O)O)cc4C3(C)C)/CCC2)=[N+](CCC[N+](C)(C)C)c2ccc(S(=O)(=O)O)cc21 [ABZWCY]
[1]
  fraction unbound at 24 h, 0.2 mg/mL: ~0.8
[2]
  PPB: 19%
[3]; Sprague Dawley, rat, skin (transcutaneous fluorescence signal), iv, 2.5 mg/kg, healthy rats 8-10 weeks, i.v. bolus, transcutaneous measurement, read-out: T 1/2 without probenecid (clearance half-life)
  half-life: 52.6 ± 8.8 min
[3]; healthy rats, half-life with versus without probenecid
  Tubular reabsorption or secretion in the kidneys (from probenecid effect): tubular reabsorption or secretion is a minor factor
[3]; healthy rats
  Transcutaneous elimination (clearance) curve, in words: did not return to background levels at 2 h post-injection
[4]
  half-life: 48.7 ± 5.4 min
[5]; Sprague Dawley, rat, urine, iv, 2.5 mg/kg, healthy rats, i.v., mean ± SD, n = 3, read-out: Urinary recovery in 24 h
  dose excreted: 99.4 ± 4.8%
[5]; Sprague Dawley, rat, urine, iv, 2.5 mg/kg, individual rats, cumulative, time 1 h after i.v. injection
  dose excreted at 1 h: 46.7%
[5]; Sprague Dawley, rat, urine, iv, 2.5 mg/kg, individual rats, cumulative, time 2 h after i.v. injection
  dose excreted at 2 h: 65%
[5]; Sprague Dawley, rat, urine, iv, 2.5 mg/kg, individual rats, cumulative, time 6 h after i.v. injection
  dose excreted at 6 h: 87.2%
[5]; Sprague Dawley, rat, urine, iv, 2.5 mg/kg, individual rats, cumulative, time 9 h after i.v. injection
  dose excreted at 9 h: 96.9%
[5]; Sprague Dawley, rat, urine, iv, 2.5 mg/kg, individual rats, cumulative, time 24 h after i.v. injection
  dose excreted at 24 h: 98.3%
[5]; individual rats, cumulative, time 1 h after i.v. injection
  Urinary recovery at 1 h: 53.33% and 49.29%
[5]; individual rats, cumulative, time 2 h after i.v. injection
  Urinary recovery at 2 h: 73.06%
[5]; individual rats, cumulative, time 6 h after i.v. injection
  Urinary recovery at 6 h: 81.95% and 89.05%
[5]; individual rats, cumulative, time 9 h after i.v. injection
  Urinary recovery at 9 h: 86.39%
[5]; individual rats, cumulative, time 24 h after i.v. injection
  Urinary recovery at 24 h: 93.3% and 106.6%

## CC1(C)C(/C=C/C=C/C=C/C=C2\N(CCCCS(=O)(=O)O)c3ccc4ccccc4c3C2(C)C)=[N+](CCCCS(=O)(=O)[O-])c2ccc3ccccc3c21 [ICG, indocyanine green]
Plasma protein
  PPB: 99%

## CC1(C)C(/C=C/C2=C(Oc3ccc(S(=O)(=O)O)cc3)C(=C/C=C3/N(CCCCS(=O)(=O)O)c4ccc(S(=O)(=O)[O-])cc4C3(C)C)/CCC2)=[N+](CCCCCC(=O)O)c2ccc(S(=O)(=O)O)cc21 [IRDye800CW, reference compound]
[3]; healthy rats
  Transcutaneous elimination (clearance) curve, in words: no decay even at 90 min post-injection
Plasma protein; previous study of the authors
  PPB: 41%

## CNC(=O)c1c(I)c(NC(C)=O)c(I)c(C(=O)O)c1I [iothalamate]
Plasma protein; 'gold standard' renal function agent
  PPB: 9.5%

Source: paper PMC5431684, “Zwitterionic near infrared fluorescent agents for noninvasive real-time transcutaneous assessment of kidney function” (Chemical Science, 2017)
